# “Also recorded” adds a separate entry of the source.
# Tested on: patients with essential tremor
# Experiment: T-CALM: treatment-emergent adverse events, discontinuations, dosage reductions
# Type: in vivo, human
# [1] = N = 48, inadequate drug supply at Visit 4
# Protocol: T-CALM employed the following dose titration scheme: Week 1 at 4 mg BID (8 mg/day), Week 2 at 8 mg BID (16 mg/day) and Weeks 3 & 4 at 10 mg BID (20 mg/day). […] Adverse Events were coded using MedDRA V20.0. Only treatment emergent adverse events with an onset date and time after the initiation of study drug until 30 days after discontinuation of drug were reported. For subjects who experience the same coded event more than once, a single event was presented. Adverse events were attributed to a study week based on the onset date, i.e. events that started on or after Visit 1 and prior to Visit 2 were classified as Study Week 1.
# Adverse events are characterized by maximum severity, drug-related adverse events, serious adverse events and adverse events leading to discontinuation of study.
# Safety procedures involved collection of all TEAEs (treatment-emergent adverse events) coded into the Medical Dictionary for Regulatory Activities (MedDRA) version 20. Adverse events were classified by maximum severity, drug-related adverse events, serious adverse events, and adverse events leading to patient discontinuation.
smiles,measurement,setting,value
CC(C)c1ccc(CC(=O)N[C@H](C)c2ccc(OCC(F)(F)F)cn2)cc1 [CX-8998],"Discontinuation due to Nervous System Disorders, subjects, percent",N = 48,(8%)
same,"Discontinuation due to Psychiatric Disorders, subjects, number",N = 48,4
same,"Discontinuation due to Psychiatric Disorders, subjects, percent",N = 48,(8%)
same,"Dosage reduced during study, subjects, percent",N = 48,(8%)
same,"Dosage reduction due to adverse event, subjects, number",N = 48,3
same,"Dosage reduction due to adverse event, subjects, percent",N = 48,(6%)
same,"Subjects with at least 1 event leading to discontinuation, number",N = 48,8
same,"Subjects with at least 1 event leading to discontinuation, percent",N = 48,(17%)
same,"Dosage reduction due to other reasons, subjects, number",[1],1
same,"Dosage reduction due to other reasons, subjects, percent",[1],(2%)^3
same,"TEAE Ear and Labyrinth Disorders (system organ class), subjects, number (%)","Safety Analysis Set, n = 48",2 (4%)
same,"TEAE Gastrointestinal Disorders (system organ class), subjects, number (%)","Safety Analysis Set, n = 48",9 (19%)
same,"TEAE Infections and Infestations (system organ class), subjects, number (%)","Safety Analysis Set, n = 48",4 (8%)
same,"TEAE Nervous System Disorders (system organ class), subjects, number (%)","Safety Analysis Set, n = 48",20 (42%)
same,"TEAE Psychiatric Disorders (system organ class), subjects, number (%)","Safety Analysis Set, n = 48",12 (52%)
same,"Dosage reduction due to TEAEs, patients",T-CALM,6%
same,"Serious adverse events (alcohol withdrawal syndrome, major depression, suicidal ideation), deemed unrelated to study drug",T-CALM,one patient
same,patients with at least 1 TEAE,T-CALM,58%
same,"Discontinuation due to adverse events (TEAEs), patients n (%)","T-CALM, N=48",8 (17%)
same,"TEAE Abnormal dreams, n (%)","T-CALM, n = 48",2 (4%)
same,"TEAE Disturbance in attention, n (%)","T-CALM, n = 48",2 (4%)
same,"TEAE Dizziness, n (%)","T-CALM, n = 48",10 (21%)
same,"TEAE Dry mouth, n (%)","T-CALM, n = 48",2 (4%)
same,"TEAE Dysgeusia, n (%)","T-CALM, n = 48",2 (4%)
same,"TEAE Ear and Labyrinth Disorders, n (%)","T-CALM, n = 48",2 (4%)
same,"TEAE Euphoric mood, n (%)","T-CALM, n = 48",3 (6%)
same,"TEAE Gastrointestinal Disorders, n (%)","T-CALM, n = 48",9 (19%)
same,"TEAE Hallucination, n (%)","T-CALM, n = 48",2 (4%)
same,"TEAE Headache, n (%)","T-CALM, n = 48",4 (8%)
same,"TEAE Hypesthesia, n (%)","T-CALM, n = 48",0
same,"TEAE Infections and Infestations, n (%)","T-CALM, n = 48",4 (8%)
same,"TEAE Insomnia, n (%)","T-CALM, n = 48",3 (6%)
same,"TEAE Nausea, n (%)","T-CALM, n = 48",1 (2%)
same,"TEAE Nervous System Disorders, n (%)","T-CALM, n = 48",20 (42%)
same,"TEAE Paraesthesia, n (%)","T-CALM, n = 48",2 (4%)
same,"TEAE Somnolence, n (%)","T-CALM, n = 48",1 (2%)
same,"TEAE Tinnitus, n (%)","T-CALM, n = 48",2 (4%)
same,"TEAE Urinary Tract Infection, n (%)","T-CALM, n = 48",2 (4%)
same,"TEAE Vomiting, n (%)","T-CALM, n = 48",0
same,safety and tolerability in ET patients,"T-CALM, up to 10 mg BID",safe and well tolerated
same,Adverse Event (MedDRA Preferred Term) leading to dosage reduction,"individual subjects 26-001 (10 to 8 mg BID), 31-023 (8 to 4 mg BID), 33-004 (4 to 2 mg BID), one line each, considered related to study drug",Anxiety; also recorded: Electrocardiogram; also recorded: Headache
same,"AE Any Event, percent of subjects",onset in study week 1,(40%)
same,"AE Central Nervous System Disorders, number of subjects",onset in study week 1,16
same,"AE Central Nervous System Disorders, percent of subjects",onset in study week 1,(33%)
same,"AE Ear and Labyrinth Disorders, number of subjects",onset in study week 1,2
same,"AE Ear and Labyrinth Disorders, percent of subjects",onset in study week 1,(4%)
same,"AE Eye Disorders, number of subjects",onset in study week 1,1
same,"AE Eye Disorders, percent of subjects",onset in study week 1,(2%)
same,"AE Gastrointestinal Disorders, number of subjects",onset in study week 1,7
same,"AE Gastrointestinal Disorders, percent of subjects",onset in study week 1,(15%)
same,"AE Infections and Infestations, number of subjects",onset in study week 1,0
same,"AE Injury, Poisoning and Procedural Complications, percent of subjects",onset in study week 1,(2%)
same,"AE Investigations, number of subjects",onset in study week 1,1
same,"AE Investigations, percent of subjects",onset in study week 1,(2%)
same,"AE Metabolism and Nutrition Disorders, number of subjects",onset in study week 1,1
same,"AE Metabolism and Nutrition Disorders, percent of subjects",onset in study week 1,(2%)
same,"AE Musculoskeletal and Connective Tissue Disorders, number of subjects",onset in study week 1,1
same,"AE Musculoskeletal and Connective Tissue Disorders, percent of subjects",onset in study week 1,(2%)
same,"AE Neoplasms, number of subjects",onset in study week 1,1
same,"AE Neoplasms, percent of subjects",onset in study week 1,(2%)
same,"AE Psychiatric Disorders, number of subjects",onset in study week 1,8
same,"AE Psychiatric Disorders, percent of subjects",onset in study week 1,(17%)
same,"AE Respiratory, Thoracic and Mediastinal Disorders, percent of subjects",onset in study week 1,(2%)
same,"AE Skin and Subcutaneous Tissue Disorders, number of subjects",onset in study week 1,1
same,"AE Skin and Subcutaneous Tissue Disorders, percent of subjects",onset in study week 1,(2%)
same,"AE Vascular Disorders, number of subjects",onset in study week 1,0
same,"AE Any Event, percent of subjects",onset in study week 2,(21%)
same,"AE Central Nervous System Disorders, number of subjects",onset in study week 2,4
same,"AE Central Nervous System Disorders, percent of subjects",onset in study week 2,(8%)
same,"AE Ear and Labyrinth Disorders, number of subjects",onset in study week 2,0
same,"AE Eye Disorders, number of subjects",onset in study week 2,0
same,"AE Gastrointestinal Disorders, number of subjects",onset in study week 2,1
same,"AE Gastrointestinal Disorders, percent of subjects",onset in study week 2,(2%)
same,"AE Infections and Infestations, number of subjects",onset in study week 2,2
same,"AE Infections and Infestations, percent of subjects",onset in study week 2,(4%)
same,"AE Investigations, number of subjects",onset in study week 2,1
same,"AE Investigations, percent of subjects",onset in study week 2,(2%)
same,"AE Metabolism and Nutrition Disorders, number of subjects",onset in study week 2,0
same,"AE Musculoskeletal and Connective Tissue Disorders, number of subjects",onset in study week 2,1
same,"AE Musculoskeletal and Connective Tissue Disorders, percent of subjects",onset in study week 2,(2%)
same,"AE Neoplasms, number of subjects",onset in study week 2,0
same,"AE Psychiatric Disorders, number of subjects",onset in study week 2,2
